Consider 38 molecules from patent publication US20250026765A1, “SPIROHETEROCYCLE DERIVATIVE HAVING SEROTONIN RECEPTOR BINDING ACTIVITY” (Shionogi & Co., Ltd., priority 2021, published 2025).

As a reminder, the Ki is a dissociation constant, usually derived from enzyme kinetics or from competition with a known ligand.

Assay [1] has as its target human recombinant 5-HT2A receptor (Homo sapiens (Human), UniProt P28223). Nature of the assay: 5-HT2A receptor binding inhibition test ([3H]-Ketanserin). The note with it: Jump-In HEK cell membrane, 25° C. 1.5 hours. In a few lines:
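Membranes from Jump-In HEK cells expressing the receptor were incubated with [3H]-ketanserin at about its Kd (from Scatchard analysis) in Tris-HCl pH 7.4 buffer for 1.5 h at 25° C, then filtered and counted. Non-specific binding was defined with 500 μmol/L serotonin, and Ki was taken from dose-response curves.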

The target of assay [2] is human recombinant 5-HT2C receptor (Homo sapiens (Human), UniProt P28335). Kind of assay: 5-HT2C receptor binding inhibition test ([3H]-Mesulergine). As to conditions: Jump-In HEK cell membrane, 37° C. 2 hours. The method in brief: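 Radioligand displacement on HEK membranes expressing human recombinant 5-HT2C (0.5 μg/well), [3H]-mesulergine near its Kd, in pH 7.4 Tris-HCl buffer with NaCl, MgCl2, KCl, CaCl2 and 0.1% BSA, 2 h at 37° C. Bound radioactivity measured after GF/B filtration; non-specific binding defined with 500 μmol/L serotonin, Ki from dose-response curve.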

The mark [3] stands for this setting: read-out: human serotonin 5-HT2A receptor binding activity Ki.
Where [4] appears, read: read-out: human serotonin 5-HT2C receptor binding activity Ki.

Like-named read-outs stand apart in the source and are kept apart here.

Sequence of human recombinant 5-HT2C receptor (P28335 33-458): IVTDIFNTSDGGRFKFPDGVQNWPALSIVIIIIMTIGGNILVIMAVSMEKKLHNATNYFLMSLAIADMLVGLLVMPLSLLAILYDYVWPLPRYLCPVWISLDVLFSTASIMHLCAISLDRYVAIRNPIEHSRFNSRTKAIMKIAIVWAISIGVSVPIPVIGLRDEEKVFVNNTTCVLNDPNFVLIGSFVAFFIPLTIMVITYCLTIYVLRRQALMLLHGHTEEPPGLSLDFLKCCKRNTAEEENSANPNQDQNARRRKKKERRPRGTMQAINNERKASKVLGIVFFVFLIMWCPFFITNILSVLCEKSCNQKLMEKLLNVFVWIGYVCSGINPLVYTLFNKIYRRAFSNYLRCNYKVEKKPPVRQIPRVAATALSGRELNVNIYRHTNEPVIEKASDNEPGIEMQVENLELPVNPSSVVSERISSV
Sequence of human recombinant 5-HT2A receptor (P28223 whole entry): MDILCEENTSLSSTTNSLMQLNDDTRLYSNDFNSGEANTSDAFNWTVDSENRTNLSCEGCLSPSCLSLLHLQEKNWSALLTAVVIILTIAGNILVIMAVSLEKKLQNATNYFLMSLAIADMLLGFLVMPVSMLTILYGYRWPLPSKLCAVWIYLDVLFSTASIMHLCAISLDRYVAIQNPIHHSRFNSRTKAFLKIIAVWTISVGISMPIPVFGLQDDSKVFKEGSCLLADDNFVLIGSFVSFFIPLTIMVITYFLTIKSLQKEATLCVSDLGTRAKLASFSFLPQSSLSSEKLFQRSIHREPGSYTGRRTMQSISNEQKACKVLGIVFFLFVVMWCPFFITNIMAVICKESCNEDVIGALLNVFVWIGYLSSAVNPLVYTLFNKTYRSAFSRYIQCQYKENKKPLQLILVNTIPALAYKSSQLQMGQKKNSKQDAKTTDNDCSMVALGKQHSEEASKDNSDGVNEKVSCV

Take `CC(C)COc1ccc(CN(Cc2ccc(F)cc2)C2=NC(=O)C3(CCNCC3)N2)cc1` [Compound I-022]: the Ki in assay [1] (read-out: h-5-HT2A Ki) and in assay [2] (read-out: h-5-HT2C Ki) was below 10 nM in each case.

Take `CN1CCC2(CC1)NC(N(Cc1ccc(OCC(F)(F)F)cc1)Cc1coc(C3CC3)n1)=NO2` [Compound I-086]: the Ki in assay [1] (read-out: h-5-HT2A Ki) and in assay [2] (read-out: h-5-HT2C Ki) was below 10 nM throughout.

For the molecule `Cc1nc(CN(Cc2ccc(OCC(C)C)c(F)c2)C2=NOC3(CCNCC3)N2)co1` [Compound I-130], the Ki amounted to 1.29 nM in assay [1] (setting [3]) and 0.535 nM in assay [2] (setting [4]).

As to `CC(C)COc1ccc(CN(Cc2cnn(C)n2)C2=NOC3(CCN(C)CC3)N2)cc1F` [Compound I-107], the Ki in assay [1] (read-out: h-5-HT2A Ki) and in assay [2] (read-out: h-5-HT2C Ki) was below 10 nM throughout.

With `Cc1cnc(CN(Cc2ccc(OCC(C)C)cc2)C2=NC(=O)C3(CCN(C)CC3)N2)nc1` [Compound I-061], the Ki in assay [1] (read-out: h-5-HT2A Ki) and in assay [2] (read-out: h-5-HT2C Ki) was 10 to 100 nM each time.

Take `Cc1nc(CN(Cc2ccc(OCC(C)C)cc2)C2=NOC3(CCN(C)CC3)N2)co1` [Compound I-011]: the Ki in assay [1] (setting [3]) is 1.22 nM; in assay [2] (setting [4]) it was 0.585 nM.

For `Cc1coc(CN(Cc2ccc(OCC(C)C)cc2)C2=NOC3(CCN(C)CC3)N2)n1` [Compound I-054], the Ki was below 10 nM in assay [1] (read-out: h-5-HT2A Ki) and 10 to 100 nM in assay [2] (read-out: h-5-HT2C Ki).

On to `CCCOc1ccc(CN(Cc2coc(C)n2)C2=NOC3(CCNCC3)N2)c(Cl)c1` [Compound I-129], for which the Ki in assay [1] (read-out: h-5-HT2A Ki) and in assay [2] (read-out: h-5-HT2C Ki) was below 10 nM each time.

For `CN1CCC2(CC1)NC(N(Cc1ccc(OCC(F)(F)F)cc1)Cc1coc(CF)n1)=NO2` [Compound I-132], the Ki in assay [1] (read-out: h-5-HT2A Ki) and in assay [2] (read-out: h-5-HT2C Ki) was below 10 nM throughout.

For `Cc1nc(CN(Cc2ccc(OCC(C)C)cc2)C2=NOC3(CCN(C)CC3)N2)cs1` [Compound I-017], the inhibitory constant (Ki) in assay [1] (read-out: h-5-HT2A Ki) and in assay [2] (read-out: h-5-HT2C Ki) was below 10 nM each time.

As to `Cc1ccc(CN(Cc2ccc(OCC(C)C)cc2)C2=NOC3(CCN(C)CC3)N2)nc1` [Compound I-016], the Ki in assay [1] (read-out: h-5-HT2A Ki) and in assay [2] (read-out: h-5-HT2C Ki) was below 10 nM in each case.

For `Cc1nc(CN(Cc2cc3ccccc3o2)C2=NOC3(CCN(C)CC3)N2)co1` [Compound I-099], the Ki in assay [1] (setting [3]) is 0.96 nM; in assay [2] (setting [4]), 3.08 nM.

With `CC(C)COc1ccc(CN(Cc2ccccn2)C2=NOC3(CCN(C)CC3)N2)cc1` [Compound I-012], the Ki in assay [1] (read-out: h-5-HT2A Ki) was below 10 nM; in assay [2] (read-out: h-5-HT2C Ki) it was 10 to 100 nM.

For the molecule `Cn1ccc(CN2C(Cc3ccc(OC4CC4)cc3)=NOC23CCNCC32CC2)n1` (racemic) [Compound I-038], the Ki in assay [1] (read-out: h-5-HT2A Ki) is 10 to 100 nM; in assay [2] (read-out: h-5-HT2C Ki), below 10 nM.

As for `CCCOc1ccc(CC2=NOC3(CCNCC34CC4)N2Cc2ccn(C)n2)cc1` (racemic) [Compound I-037], the Ki in assay [1] (read-out: h-5-HT2A Ki) and in assay [2] (read-out: h-5-HT2C Ki) was below 10 nM throughout.

On to `CC(C)COc1ccc(CN(Cc2coc(C3CC3)n2)C2=NOC3(CCN(C)CC3)N2)cc1` [Compound I-049], for which the Ki in assay [1] (setting [3]) worked out at 0.961 nM; in assay [2] (setting [4]), 0.524 nM.

Take `Cc1nc(CN(Cc2ccc(OCC3CCC3)cc2)C2=NOC3(CCN(C)CC3)N2)co1` [Compound I-083]: the Ki in assay [1] (read-out: h-5-HT2A Ki) and in assay [2] (read-out: h-5-HT2C Ki) was below 10 nM throughout.

For `Cc1nc(CN(Cc2nc3ccccc3o2)C2=NOC3(CCN(C)CC3)N2)co1` [Compound I-094], the inhibition constant Ki in assay [1] (read-out: h-5-HT2A Ki) and in assay [2] (read-out: h-5-HT2C Ki) was 10 to 100 nM in each case.

`CCCCOc1ccc(CN(Cc2cnn(C)n2)C2=NOC3(CCN(C)CC3)N2)cc1F` [Compound I-111]: the Ki in assay [1] (read-out: h-5-HT2A Ki) and in assay [2] (read-out: h-5-HT2C Ki) was below 10 nM in each case.

Consider `Cc1ccc(CN(Cc2ccc(OCC(C)C)cc2)C2=NOC3(CCN(C)CC3)N2)cn1` [Compound I-081], for which the Ki in assay [1] (read-out: h-5-HT2A Ki) is below 10 nM; in assay [2] (read-out: h-5-HT2C Ki) it was 100 to 500 nM.

In the case of `Cc1nc(CN(Cc2ccc(OCC(C)C)cc2)C2=NOC3(CCN(C)CC3)N2)no1` [Compound I-018], the Ki in assay [1] (read-out: h-5-HT2A Ki) is 10 to 100 nM; in assay [2] (read-out: h-5-HT2C Ki), below 10 nM.

`Cc1ncc(CN(Cc2ccc(OCC(C)C)cc2)C2=NOC3(CCN(C)CC3)N2)o1` [Compound I-053]: the Ki in assay [1] (read-out: h-5-HT2A Ki) and in assay [2] (read-out: h-5-HT2C Ki) was below 10 nM in each case.

With `Cc1nc(CN(Cc2ccc(OCC(C)C)cc2)C2=NOC3(CCNCC3)N2)co1` [Compound I-048], the Ki in assay [1] (read-out: h-5-HT2A Ki) and in assay [2] (read-out: h-5-HT2C Ki) was below 10 nM each time.

As for `Cc1nc(CN(Cc2ccc(OCC(F)(F)C(F)(F)F)cc2)C2=NOC3(CCN(C)CC3)N2)co1` [Compound I-082], the Ki in assay [1] (read-out: h-5-HT2A Ki) and in assay [2] (read-out: h-5-HT2C Ki) was below 10 nM each time.

Take `CC(C)COc1ccc(CC2=NOC3(CCN(C)CC3)N2Cc2ccc(F)cc2)cc1` [Compound I-001]: the Ki stood at 4.82 nM in assay [1] (setting [3]) and 16.7 nM in assay [2] (setting [4]).

As to `Cc1cccc(CN(Cc2ccc(OCC(C)C)cc2)C2=NOC3(CCN(C)CC3)N2)n1` [Compound I-013], the Ki in assay [1] (read-out: h-5-HT2A Ki) and in assay [2] (read-out: h-5-HT2C Ki) was 10 to 100 nM each time.

For the molecule `Cc1nc(CN(Cc2ccc(Cc3ccccc3)cc2)C2=NOC3(CCN(C)CC3)N2)co1` [Compound I-119], the Ki in assay [1] (read-out: h-5-HT2A Ki) and in assay [2] (read-out: h-5-HT2C Ki) was below 10 nM each time.

Regarding `Cc1nc(CN(Cc2ccc3ncccc3c2)C2=NOC3(CCN(C)CC3)N2)co1` [Compound I-096], the values for the Ki in assay [1] (read-out: h-5-HT2A Ki) and in assay [2] (read-out: h-5-HT2C Ki) were below 10 nM and 10 to 100 nM, respectively.

Regarding `Cc1nc(CN(Cc2ccc(OCC(C)C)cc2)C2=NC3(CCNCC3)ON2C)co1` [Compound I-051], the Ki in assay [1] (read-out: h-5-HT2A Ki) and in assay [2] (read-out: h-5-HT2C Ki) was 100 to 500 nM in each case.

As for `Cc1nc(CN(Cc2ccc3ccccc3c2)C2=NOC3(CCN(C)CC3)N2)co1` [Compound I-097], the Ki in assay [1] (read-out: h-5-HT2A Ki) and in assay [2] (read-out: h-5-HT2C Ki) was below 10 nM in each case.

As for `Cc1nc(CN(Cc2cn3ccccc3n2)C2=NOC3(CCN(C)CC3)N2)co1` [Compound I-091], the Ki in assay [1] (read-out: h-5-HT2A Ki) is 10 to 100 nM; in assay [2] (read-out: h-5-HT2C Ki), 100 to 500 nM.

For the molecule `Cc1cc(CN(Cc2ccc(OCC(C)C)cc2)C2=NC(=O)C3(CCN(C)CC3)N2)nn1C` [Compound I-058], the Ki in assay [1] (read-out: h-5-HT2A Ki) fell in the range of 10 to 100 nM; in assay [2] (read-out: h-5-HT2C Ki), 100 to 500 nM.

Turning to `CC(C)COc1ccc(CN(Cc2coc(-c3ccccc3)n2)C2=NOC3(CCN(C)CC3)N2)cc1` [Compound I-118], the Ki in assay [1] (read-out: h-5-HT2A Ki) and in assay [2] (read-out: h-5-HT2C Ki) was 100 to 500 nM in each case.

As for `CCCCOc1ccc(CN(Cc2coc(C)n2)C2=NOC3(CCN(C)CC3)N2)c(Br)c1` [Compound I-092], the inhibitory constant (Ki) in assay [1] (read-out: h-5-HT2A Ki) and in assay [2] (read-out: h-5-HT2C Ki) was below 10 nM each time.

Regarding `CC(C)COc1ccc(CN(Cc2cn(C)cn2)C2=NOC3(CCN(C)CC3)N2)cc1` [Compound I-019], the Ki in assay [1] (read-out: h-5-HT2A Ki) is below 10 nM; in assay [2] (read-out: h-5-HT2C Ki), 100 to 500 nM.

Regarding `Cc1nc(CN(Cc2ccc(OCC(F)(F)C(F)F)cc2)C2=NOC3(CCN(C)CC3)N2)co1` [Compound I-064], the Ki in assay [1] (read-out: h-5-HT2A Ki) and in assay [2] (read-out: h-5-HT2C Ki) was below 10 nM each time.

Turning to `CC(C)COc1ccc(CN(Cc2ccco2)C2=NC(=O)C3(CCN(C)CC3)N2)cc1` [Compound I-063], the Ki was below 10 nM in assay [1] (read-out: h-5-HT2A Ki) and 10 to 100 nM in assay [2] (read-out: h-5-HT2C Ki).

As to `CCCOc1ccc(CN(Cc2coc(C)n2)C2=NOC3(CCN(C)CC3)N2)c(Cl)c1` [Compound I-126], the Ki in assay [1] (read-out: h-5-HT2A Ki) and in assay [2] (read-out: h-5-HT2C Ki) was below 10 nM in each case.
